{"source": "PubChem BioAssay AID1259407", "about": "(Chemical Carcinogenesis Research Information System (CCRIS), 2018)", "system": "CCRIS mutagenicity, Ames/micronucleus/aberration tests", "experiment": "CCRIS mutagenicity studies", "key": {"[1]": {"details": "Test System: AMES SALMONELLA TYPHIMURIUM, Strain/Indicator: TA98, Metabolic Activation: NONE, Method: STANDARD PLATE"}, "[2]": {"details": "Test System: AMES SALMONELLA TYPHIMURIUM, Strain/Indicator: TA98, Metabolic Activation: RAT, LIVER, S-9, AROCLOR 1254, Method: STANDARD PLATE"}, "[3]": {"details": "Test System: AMES SALMONELLA TYPHIMURIUM, Strain/Indicator: TA100, Metabolic Activation: NONE, Method: STANDARD PLATE"}, "[4]": {"details": "Test System: AMES SALMONELLA TYPHIMURIUM, Strain/Indicator: TA100, Metabolic Activation: RAT, LIVER, S-9, AROCLOR 1254, Method: STANDARD PLATE"}}, "note": "The source made the active and inactive calls. The rule behind the calls is not given here."}
{"smiles": "Nc1ccc(N)c2c1C(=O)c1c(N)ccc(N)c1C2=O", "values": [{"measurement": "mutagenic call", "setting": "End Point: IN VITRO CHROMOSOMAL ABERRATIONS, Test System: CHO CELLS, Metabolic Activation: NONE", "value": "active; positive"}, {"measurement": "mutagenic call", "setting": "End Point: IN VITRO CHROMOSOMAL ABERRATIONS, Test System: CHO CELLS, Metabolic Activation: RAT, LIVER, S-9, AROCLOR 1254", "value": "active; positive"}, {"measurement": "mutagenic call", "setting": "Test System: AMES SALMONELLA TYPHIMURIUM, Strain/Indicator: TA97, Metabolic Activation: HAMSTER, LIVER, S-9, AROCLOR 1254 (10%), Method: PREINCUBATION", "value": "inactive; negative"}, {"measurement": "mutagenic call", "setting": "Test System: AMES SALMONELLA TYPHIMURIUM, Strain/Indicator: TA97, Metabolic Activation: HAMSTER, LIVER, S-9, AROCLOR 1254, Method: PREINCUBATION", "value": "active; positive"}, {"measurement": "mutagenic call", "setting": "Test System: AMES SALMONELLA TYPHIMURIUM, Strain/Indicator: TA97, Metabolic Activation: NONE, Method: PREINCUBATION", "value": "active; positive"}, {"measurement": "mutagenic call", "setting": "Test System: AMES SALMONELLA TYPHIMURIUM, Strain/Indicator: TA97, Metabolic Activation: RAT, LIVER, S-9, AROCLOR 1254 (10%), Method: PREINCUBATION", "value": "inactive; negative"}, {"measurement": "mutagenic call", "setting": "Test System: AMES SALMONELLA TYPHIMURIUM, Strain/Indicator: TA97, Metabolic Activation: RAT, LIVER, S-9, AROCLOR 1254, Method: PREINCUBATION", "value": "active; positive"}, {"measurement": "mutagenic call", "setting": "Test System: AMES SALMONELLA TYPHIMURIUM, Strain/Indicator: TA98, Metabolic Activation: HAMSTER, LIVER, S-9, AROCLOR 1254 (10%), Method: PREINCUBATION", "value": "active; positive"}, {"measurement": "mutagenic call", "setting": "Test System: AMES SALMONELLA TYPHIMURIUM, Strain/Indicator: TA98, Metabolic Activation: HAMSTER, LIVER, S-9, AROCLOR 1254, Method: PREINCUBATION", "value": "active; positive"}, {"measurement": "mutagenic call", "setting": "Test System: AMES SALMONELLA TYPHIMURIUM, Strain/Indicator: TA98, Metabolic Activation: NONE, Method: PREINCUBATION", "value": "active; positive"}, {"measurement": "mutagenic call", "setting": "[1]", "value": "inactive; negative"}, {"measurement": "mutagenic call", "setting": "Test System: AMES SALMONELLA TYPHIMURIUM, Strain/Indicator: TA98, Metabolic Activation: RAT, LIVER, S-9, AROCLOR 1254 (10%), Method: PREINCUBATION", "value": "active; positive"}, {"measurement": "mutagenic call", "setting": "Test System: AMES SALMONELLA TYPHIMURIUM, Strain/Indicator: TA98, Metabolic Activation: RAT, LIVER, S-9, AROCLOR 1254, Method: PREINCUBATION", "value": "active; positive"}, {"measurement": "mutagenic call", "setting": "[2]", "value": "inactive; negative"}, {"measurement": "mutagenic call", "setting": "Test System: AMES SALMONELLA TYPHIMURIUM, Strain/Indicator: TA100, Metabolic Activation: HAMSTER, LIVER, S-9, AROCLOR 1254 (10%), Method: PREINCUBATION", "value": "inactive; negative"}, {"measurement": "mutagenic call", "setting": "Test System: AMES SALMONELLA TYPHIMURIUM, Strain/Indicator: TA100, Metabolic Activation: HAMSTER, LIVER, S-9, AROCLOR 1254, Method: PREINCUBATION", "value": "inactive; negative"}, {"measurement": "mutagenic call", "setting": "Test System: AMES SALMONELLA TYPHIMURIUM, Strain/Indicator: TA100, Metabolic Activation: NONE, Method: PREINCUBATION", "value": "inactive; negative"}, {"measurement": "mutagenic call", "setting": "[3]", "value": "inactive; negative"}, {"measurement": "mutagenic call", "setting": "Test System: AMES SALMONELLA TYPHIMURIUM, Strain/Indicator: TA100, Metabolic Activation: RAT, LIVER, S-9, AROCLOR 1254 (10%), Method: PREINCUBATION", "value": "inactive; negative"}, {"measurement": "mutagenic call", "setting": "Test System: AMES SALMONELLA TYPHIMURIUM, Strain/Indicator: TA100, Metabolic Activation: RAT, LIVER, S-9, AROCLOR 1254, Method: PREINCUBATION", "value": "inactive; negative"}, {"measurement": "mutagenic call", "setting": "[4]", "value": "inactive; negative"}, {"measurement": "mutagenic call", "setting": "Test System: AMES SALMONELLA TYPHIMURIUM, Strain/Indicator: TA1535, Metabolic Activation: HAMSTER, LIVER, S-9, AROCLOR 1254 (10%), Method: PREINCUBATION", "value": "active; positive"}, {"measurement": "mutagenic call", "setting": "Test System: AMES SALMONELLA TYPHIMURIUM, Strain/Indicator: TA1535, Metabolic Activation: HAMSTER, LIVER, S-9, AROCLOR 1254, Method: PREINCUBATION", "value": "active; positive"}, {"measurement": "mutagenic call", "setting": "Test System: AMES SALMONELLA TYPHIMURIUM, Strain/Indicator: TA1535, Metabolic Activation: NONE, Method: PREINCUBATION", "value": "inactive; negative"}, {"measurement": "mutagenic call", "setting": "Test System: AMES SALMONELLA TYPHIMURIUM, Strain/Indicator: TA1535, Metabolic Activation: NONE, Method: STANDARD PLATE", "value": "inactive; negative"}, {"measurement": "mutagenic call", "setting": "Test System: AMES SALMONELLA TYPHIMURIUM, Strain/Indicator: TA1535, Metabolic Activation: RAT, LIVER, S-9, AROCLOR 1254 (10%), Method: PREINCUBATION", "value": "active; positive"}, {"measurement": "mutagenic call", "setting": "Test System: AMES SALMONELLA TYPHIMURIUM, Strain/Indicator: TA1535, Metabolic Activation: RAT, LIVER, S-9, AROCLOR 1254, Method: PREINCUBATION", "value": "active; positive"}, {"measurement": "mutagenic call", "setting": "Test System: AMES SALMONELLA TYPHIMURIUM, Strain/Indicator: TA1535, Metabolic Activation: RAT, LIVER, S-9, AROCLOR 1254, Method: STANDARD PLATE", "value": "inactive; negative"}, {"measurement": "mutagenic call", "setting": "Test System: AMES SALMONELLA TYPHIMURIUM, Strain/Indicator: TA1537, Metabolic Activation: NONE, Method: STANDARD PLATE", "value": "active; positive"}, {"measurement": "mutagenic call", "setting": "Test System: AMES SALMONELLA TYPHIMURIUM, Strain/Indicator: TA1538, Metabolic Activation: RAT, LIVER, S-9, AROCLOR 1254, Method: STANDARD PLATE", "value": "inactive; negative"}, {"measurement": "mutagenic call", "setting": "Test System: MOUSE LYMPHOMA, Strain/Indicator: L5178Y (TK+/TK-), Metabolic Activation: NONE, Method: SUSPENSION/PLATE", "value": "active; positive"}]}
{"smiles": "O=Cc1cccc(-c2ccccc2)c1", "values": [{"measurement": "mutagenic call", "setting": "[1]", "value": "inactive; negative"}, {"measurement": "mutagenic call", "setting": "[2]", "value": "inactive; negative"}, {"measurement": "mutagenic call", "setting": "[3]", "value": "inactive; negative"}, {"measurement": "mutagenic call", "setting": "[4]", "value": "inactive; negative"}]}
